Consider one compound from publication PMC9883482, “TPX2 enhances the transcription factor activation of PXR and enhances the resistance of hepatocellular carcinoma cells to antitumor drugs” (Cell Death & Disease, 2023).

Each structure is given as a SMILES string. Read-outs that look alike come from different tables or passages of the source.

For orientation: IC50 means the point on the concentration scale where inhibition reaches its midpoint. Higher therefore signals weaker potency.

One series relates to LS180 cells. As to the kind of experiment: MTT cell survival examination. Type of series: cell-based. Particulars: Homo sapiens. The protocol: (§1) The antitumor activity of antitumor drugs injuring HCC cells was examined by using MTT assay. After culturing the HCC cells, transfection experiments were performed, and the cells were then seeded in 96-well cell culture plates (about 8000 cells per well). […] After the cells were treated with the drug for about 48 h, a dose of […] tetrazolium (MTT) reagent was added, and cells with the MTT reagent were incubated for 5 to 6 h. After incubation with the MTT was complete, all liquid in the 96-well cell culture plate was discarded, and about 100 μl of DMSO was added to each well to dissolve the cell samples. During the process of lysing the cell samples, the cell culture plate was shaken for 15 minutes to completely lyse the cells. After the lysis step was complete, the cell culture plate was centrifuged at 12,000 rpm at 4 °C, and the supernatant was collected for evaluation.
(§2) All statistical analyses in the presence work were performed using the GraphPad 8.0 (GraphPad Software Corporation, Armonk, NY, USA). […] For the survival analysis data, the survival curves were analyzed by the log-rank (Mantel–Cox) test to detect the P-value of the survival curve, the median survival time, and the 95% confidence interval (CI). For the co-relationship analysis, the data were analyzed by linear regression to determine the overall trend of a group of data points. […] If the slope was positive, the horizontal coordinate was positively related to the vertical coordinate, and if the slope was negative, the horizontal coordinate was negatively related to the vertical coordinate. For the multi-grouped data, the ordinary one-way analysis of variance (ANOVA) and multiple comparison methods were used. An ANOVA was used to examine whether any difference between groups could be detected. The multiple comparisons (t-test) was used to detect differences between pairs of data.

For a further series, the system named is advanced HCC patients. As to the kind of experiment: Prognosis of advanced HCC patients who received sorafenib, by TPX2 mRNA expression. Type of series: in vivo, human. Conditions: advanced HCC patients on sorafenib. The protocol:
The human-related experimental materials involved in this study consisted of mainly cDNA samples extracted from patient-derived HCC clinical specimens or the HCC cell lines. The cDNA samples were stored in a –80 °C refrigerator and stored in aliquots. […] Baseline information was detailed in our previous publications. The cell lines use in this study included various HCC cell lines (HepG2 [a HCC cell line], MHCC97-H [a highly aggressive HCC cell line], and MHCC97-L [a lowly aggressive HCC cell line]) and a PXR positive colorectal cancer line LS180. These cells were purchased from the National Infrastructure of Cell Resources of the Chinese Academy of Medical Sciences/China Union Medical College and descripted in our previous work.
All statistical analyses in the presence work were performed using the GraphPad 8.0 (GraphPad Software Corporation, Armonk, NY, USA). […] For the co-relationship analysis, the data were analyzed by linear regression to determine the overall trend of a group of data points. […] If the slope was positive, the horizontal coordinate was positively related to the vertical coordinate, and if the slope was negative, the horizontal coordinate was negatively related to the vertical coordinate. […] An ANOVA was used to examine whether any difference between groups could be detected. […]

Series [1] is described as follows: Sorafenib metabolism/clearance in LS180 cells. Type of series: in vitro ADME. Particulars: human, read-out: t1/2 values (converted).
Series [2] deals with HepG2 cells. As to the kind of experiment: MTT cell survival examination. Type of series: cell-based. Conditions: Homo sapiens, HepG2, 48 h. The protocol: (§3) In the process of dissolving these pure drug powders, stirring, vortexing, and ultrasonic vibration were used to assist dissolution [17, 18]. After a drug was fully dissolved, Dulbecco’s modified Eagle’s medium (DMEM) without fetal bovine serum (FBS) was used to dilute the drug dissolved in DMSO. For doxorubicin, we used DMEM without FBS to dissolve the drug. When performing cell viability experiments (tetrazolium [MTT] assays), these drugs were diluted.
as §1, §2

The subject of a further series is MHCC97-H cells. Description: MTT cell survival examination. Type of series: cell-based. Particulars: Homo sapiens, MHCC97H, 48 h. The protocol:
as §3, §1, §2

The next series relates to MHCC97-L cells. As to the kind of experiment: MTT cell survival examination. Type of series: cell-based. Conditions: Homo sapiens, MHCC97L, 48 h, median (95% CI). The protocol: as §3, §1, §2
Series [3] relates to HepG2 cells. As to the kind of experiment: Subcutaneous tumor model. Type of series: in vivo. Conditions: nude mice; 2.0, 1.0 or 0.5 mg/kg oral. The text has this: In the process of dissolving these pure drug powders, stirring, vortexing, and ultrasonic vibration were used to assist dissolution.
The HCC cells were transfected with plasmids and then injected into the subcutaneous position of nude mice (the HepG2 cells were transfected with TPX2 for TPX2 overexpression and the siRNA of TPX2 for TPX2 knockdown). After the cells in the bottom of the dish were digested with trypsin, the cells were gently mixed with sterilized PBS to prepare a cell suspension. The resulting cell suspension was directly injected subcutaneously into nude mice using a pre-sterilized disposable medical syringe with a capacity of 1 ml. After that step, animal status was observed every day, and the tumor tissue was collected after 4 to 6 weeks of growth to detect the tumor volume (using a Vernier caliper to measure the long and short axes of the tumor tissue after which the tumor volume was calculated according to the formula: short axis × short axis × long axis/2) and weight (accurately weighed with a 1/10000th precision balance). Finally, the tumor tissue was ground with liquid nitrogen, and qPCR was then used to measure the mRNA expression level of the corresponding genes. The intrahepatic tumor model and the in vivo imaging of small-animals-related experiments were performed according to our previous publications. […]

Series [4] has as its system HCC subcutaneous tumor tissues. As to the kind of experiment: Sorafenib retention in HCC subcutaneous tumor tissues, LC-MS/MS. Type of series: in vivo, nude mice. Particulars: 72-h time point after intratumoral injection. The protocol:
For HCC subcutaneous tumor tissue, HCC cells were first cultured for transfection after which the cells were inoculated subcutaneously into nude mice to form tumor tissue. […] The HCC tumor tissues were collected at each time point described previously with the addition of 72 and 96 h.
During the extraction of sorafenib samples from HCC tissue samples, the tissue samples were shredded to form tissue micro-blocks and then ground with liquid nitrogen. The samples ground with liquid nitrogen were mixed with PBS and then mixed with the organic solvent acetonitrile at a ratio of 1:1. The samples were then crushed and extracted for about 30 min using vortex shaking. After that, the samples were centrifuged at 12,000 rpm and at 4 °C for about 15 to 20 min. At this time, the sample was separated into cell debris and organic and water phases.
S transition pair was detected using LC–MS/MS: (1) the parent ion was 465 Da and (2) the product ion was 252 Da.

For `CNC(=O)c1cc(Oc2ccc(NC(=O)Nc3ccc(Cl)c(C(F)(F)F)c3)cc2)ccn1` [sorafenib], the concentration for half-maximal inhibition (IC50) was determined as 250 nM in the series with LS180 cells (LS180, LS180, TPX2 knockdown); 4300 nM in the series on LS180 cells (LS180, LS180, TPX2 overexpression); 910 nM in the series with LS180 cells (LS180, LS180, control group); 1270 nM in the series on HepG2 cells [2] (HepG2, Control, median (95% CI)); 4680 nM with HepG2 cells [2] (HepG2, TPX2 overexpression, median (95% CI)); 500 nM in the series with HepG2 cells [2] (HepG2, siTPX2, median (95% CI)). Further, the IC50 with MHCC97-H cells (Control, median (95% CI)) amounted to 1160 nM; in the series with MHCC97-H cells (siTPX2, median (95% CI)) it was 470 nM; with MHCC97-L cells (Control), 1860 nM; with MHCC97-L cells (TPX2 overexpression), 4840 nM. For the same compound, the TTP median value in the series with advanced HCC patients (TPX2 mRNA High (n = 26)) is 9.0 months. The compound further registered an OS median value with advanced HCC patients (TPX2 mRNA Low (n = 26)) of 16.0 months. Also, the half-life at 1 μmol/L in series [1] (TPX2 knockdown) was 32.7 h; in series [1] (TPX2 overexpression), 12 h; in series [1] (control of TPX2 knockdown experiment), 21.8 h; in series [1] (control of TPX2 overexpression experiment) it was 21.3 h. The “subcutaneous growth of HepG2 cells (tumor volumes/weights)” value with HepG2 cells [3] was “inhibited the subcutaneous growth of HepG2 cells in a dose-dependent manner”. Also, the “metabolism and elimination in HCC tissues” value in series [4] was “almost completely metabolized and eliminated”.
